Test results from PMC12796071, “Evaluation of [^18F]MNI-1054, a novel PET ligand for lysine-specific histone demethylase 1A (LSD1), in non-human primates” (EJNMMI Research, 2025).
Where “and” joins values, the source holds several entries; their conditions need not be identical. Identical values can stand only once. Entries after “also recorded” stand apart in the source; their conditions may differ.

Assays:
[1] = TAK-418 plasma concentration after 5-minute intravenous bolus; type: in vivo, rhesus monkeys (macaca mulatta); details: 0.3 mg/kg iv
LSD1 [2] = target: T1, LSD1 (Macaca mulatta, UniProt I2CUD2); experiment: PET imaging of the testes (baseline and TAK-418 blocking); details: TAK-418 3.0 mg/kg iv 120 min before tracer, M3
Experimental: TAK-418 (3 mg/kg) was administered as an intravenous bolus over 5-min, starting 120 min prior to [^18F]MNI-1054 administration.

LSD1 [3] = target: T1, LSD1; experiment: LSD1 enzyme occupancy in brain from [18F]MNI-1054 PET blocking, self-block and repopulation studies; type: in vivo, rhesus monkeys (macaca mulatta); parameters: from tissue; host or cells: brain of living rhesus monkeys (M1, M2), in vivo PET; details: for Occupancy: from Ki
Experimental: M1 and M2 each completed a scan at baseline to assess brain penetration and kinetics and to serve as reference for the blocking and displacement studies. A self-block study with cold 3 mg/kg MNI-1054, starting 5 min prior to [^18F]MNI-1054 administration, was conducted in M1 to assess regional differences in non-specific binding.
Blocking studies with the LSD1 inhibitor TAK-418 ([…]) were performed to measure the dose-occupancy relationship for this compound. For blocking studies, TAK-418 was administered intravenously 2 h prior to [^18F]MNI-1054. Prior to conducting these blocking studies, a displacement study with TAK-418 (3 mg/kg) was performed to confirm irreversible tracer binding, in which TAK-418 was administered 1.5 h post [^18F]MNI-1054 administration. For all studies involving TAK-418, the test article was administered intravenously over 5 min. Due to the irreversible binding of these compounds to LSD1, the time taken for the enzyme to re-populate was investigated by imaging one animal (M2) with [^18F]MNI-1054 at 24 and 48 h post TAK-418 treatment (0.3 mg/kg). Each animal also underwent a high-resolution T1-weighted structural brain MRI scan with a 3-D MPRAGE sequence on a separate day for anatomical reference.
Regional occupancy due to TAK-418 or unlabeled MNI-1054 as measured with [^18F]MNI-1054 was computed as the percent change relative to the baseline value of Ki, i.e. where the drug was either TAK-418 or MNI-1054. An Emax model with maximum occupancy constrained to a value less than 100% was fitted to the dose-occupancy plot to estimate Omax (maximal occupancy) and ED50 [mg/kg] representing the injected TAK-418 dose yielding 50% LSD1 occupancy.

[4] = cerebellum, TAK-418 iv 2 h before tracer

## O=C(NC1CCOCC1)c1csc([C@@H]2C[C@H]2NCC2CC2)c1 [TAK-418]
[1]; 24 and 48 hours post-dose, M2
  TAK-418 levels in plasma: no detectable levels; also recorded: below the level of detection
[1]; after 5 h
  plasma concentration as percent of its peak value: 0.45%
LSD1 [2]; from fractional changes in a parameter other than Ki
  occupancy in the testes: 94.4%
LSD1 [2]; compared with control leg muscle, 3 mg/kg
  signal blockade in the testes: significant signal blockade; also recorded: substantial reduction
LSD1 [3]; cerebellum, TAK-418 0.005 mg/kg, 2 h post-dose
  Occupancy based on fractional changes in k3: 2.4%
LSD1 [3]; cerebellum, TAK-418 0.005 mg/kg, 2 h post-dose, M2
  Occupancy: −21.3%
LSD1 [3]; cerebellum, TAK-418 0.005 mg/kg, M2
  [18F]MNI-1054 Ki 2 h post-dose: 0.057 mL/cm^3/min
LSD1 [3]; cerebellum, TAK-418 0.01 mg/kg, 2 h post-dose, M1
  Occupancy: 47.3%
LSD1 [3]; cerebellum, TAK-418 0.01 mg/kg, M1
  [18F]MNI-1054 Ki 2 h post-dose: 0.030 mL/cm^3/min
LSD1 [3]; cerebellum, TAK-418 0.03 mg/kg, 2 h post-dose, M2
  Occupancy: 62.5%
LSD1 [3]; cerebellum, TAK-418 0.03 mg/kg, M2
  [18F]MNI-1054 Ki 2 h post-dose: 0.017 mL/cm^3/min
LSD1 [3]; cerebellum, TAK-418 0.3 mg/kg, 2 h post-dose, M1
  Occupancy: 89.9%
LSD1 [3]; cerebellum, TAK-418 0.3 mg/kg, 24 h post-dose, M2
  LSD1 enzyme occupancy: 29.8%
LSD1 [3]; cerebellum, TAK-418 0.3 mg/kg, M1
  [18F]MNI-1054 Ki 2 h post-dose: 0.006 mL/cm^3/min
LSD1 [3]; cerebellum, TAK-418 0.3 mg/kg, exponential fit to 2, 24 and 48 h occupancy
  half-life for occupancy to decrease to zero (proxy for LSD1 enzyme repopulation): 12.28 h
LSD1 [3]; cerebellum, TAK-418 3 mg/kg, 2 h post-dose, M1, 3 mg/kg
  Occupancy: 90.1%
LSD1 [3]; cerebellum, TAK-418 3 mg/kg, M1
  [18F]MNI-1054 Ki 2 h post-dose: 0.005 mL/cm^3/min
LSD1 [3]; [4]
  ED50 (Emax model fit): 0.0224 mg/kg and ~ 0.0224 mg/kg
  Omax (Emax model fit): 95.6%
LSD1 [3]; occipital cortex
  ED50 (Emax model fit): 0.0279 mg/kg and ~ 0.0279 mg/kg
  Omax (Emax model fit): 77.3%
LSD1 [3]; pons
  ED50 (Emax model fit): 0.046 mg/kg
  Omax (Emax model fit): 73.3%
